Literature values as cited in US20230023005A1, “IMPROVING THE PERFORMANCE OF PIGMENT-BASED DYES BY USING A PRETREAMENT AGENT” (Henkel AG & Co. KGaA, priority 2019, published 2023).

Key:
[1] = 25° C.
[2] = 5% solution in water

Row | pH value of solution in water [2] | SMILES | solubility in water [1]
1 | – | O=S(=O)([O-])c1ccc(N=Nc2c(O)ccc3ccccc23)cc1.[Na+] [Acid Orange 7, sodium salt of 4-[(2-hydroxy-1-naphthyl)azo]benzene sulphonate] | more than 7 g/L
2 | – | Nc1cc(S(=O)(=O)[O-])cc2cc(S(=O)(=O)[O-])c(N=Nc3ccccc3)c(O)c12.[Na+].[Na+] [Acid Red 33, diantrium salt of 5-amino-4-hydroxy-3-(phenylazo)-naphthalene-2,7-disulphonate] | 2.5 g/L
3 | – | O=C([O-])c1c(Cl)c(Cl)c(Cl)c(Cl)c1-c1c2c(Br)cc(=O)c(Br)c-2oc2c(Br)c(O)cc(Br)c12.O=C([O-])c1c(Cl)c(Cl)c(Cl)c(Cl)c1-c1c2c(Br)cc(=O)c(Br)c-2oc2c(Br)c(O)cc(Br)c12.[Na+].[Na+] [Acid Red 92, disodium salt of 3,4,5,6-tetrachloro-2-(1,4,5,8-tetrabromo-6-hydroxy-3-oxoxanthen-9-yl)benzoic acid] | greater than 10 g/L
4 | – | O=C([O-])C1=NN(c2ccc(S(=O)(=O)[O-])cc2)C(=O)C1N=Nc1ccc(S(=O)(=O)[O-])cc1.[Na+].[Na+].[Na+] (centres unmarked) [Acid Yellow 23, trisodium salt of 4,5-dihydro-5-oxo-1-(4-sulfophenyl)-4-((4-sulfophenyl)azo)-1H-pyrazole-3-carboxylic acid] | highly soluble in water
5 | 4.4 | O=P([O-])(O)O.[K+] [Potassium dihydrogen phosphate] | –
